Like-named read-outs stand apart in the source and are kept apart here.
Assays:
Aspergillus niger (ANIG) = assay: Minimum inhibitory concentration (MIC), broth two-fold serial dilution test; format: cell-based; details: Aspergillus niger, IIIB, trypticase soy broth (complex media); Table IIIb; read-out: MIC (F) ANIG
[1] = test system: Aureobasidium pullulans (APUL); assay: as above; format: cell-based; details: Aureobasidium pullulans, IIIB, trypticase soy broth (complex media); Table IIIb; read-out: MIC (F) APUL
[2] = test system: MIXED COOLING TOWER ALGAE; assay: MIC test against mixed cooling tower algae; format: cell-based, green algae and blue-green bacteria; details: Table VIII
Procedure: The algae culture contains green algae and blue-green bacteria, and is obtained from a cooling tower in Spring House, Pennsylvania. The algae culture is grown in Allen's medium on a rotary shaker under flourescent room lighting. This culture is further diluted with Allen's medium and then added to the test vessel.

8 FUNGI = assay: Microbicides secondary test against 8 fungi on Mycophile Agar at pH 5.0 (Table VI); format: cell-based; set-up: key: 1= no growth; 0= growth of the indicated fungi at dose indicated in ppm; details: for ANIG growth: Aspergillus niger; for APUL growth: Aureobasidium pullulans; for CGLO growth: Chaetomium globosum; for CRES growth: Cladosporium resinae; for GTRA growth: Gloeophyllum trabeum; for PFUN growth: Penicillium funiculosum; for RRUB growth: Rhodotorula rubra; for SSER growth: Sacharomyces cerevisiae
Excerpt: The results of the minimum inhibitory concentration (MIC) tests of compounds of this invention are shown in Tables IIIa IIIb, IIIc, V, VI, VII, and VIII against the microorganisms shown in Table IX.

THREE FUNGI = assay: MIC test against three fungi in Mycophile Broth, pH 5.0, read after 8 days (Table VII); format: cell-based; details: 192 h, serial dilutions from 50 ppm, read after 8 days of incubation
[3] = test system: Pseudomonas fluorescens (PSFL); assay: Minimum inhibitory concentration (MIC), broth two-fold serial dilution test; details: Pseudomonas fluorescens, IIIB, read-out: MIC (G-) PSFL, trypticase soy broth (complex media); Table IIIb
[4] = test system: Pseudomonas aerugenosa (PSAE); assay: as above; details: Pseudomonas, IIIB, read-out: MIC (G-) PSAE, trypticase soy broth (complex media); Table IIIb
Escherichia coli (ECOL) = assay: as above; details: Escherichia coli, IIIB, read-out: MIC (G-) ECOL, trypticase soy broth (complex media); Table IIIb
[5] = test system: Staphylococcus aureus (SAUR); assay: as above; details: Staphylococcus aureus, IIIB, read-out: MIC (G+) SAUR, trypticase soy broth (complex media); Table IIIb
[6] = Aspergillus niger, read-out: MIC ANIG
[7] = Aureobasidium pullulans, read-out: MIC APUL
[8] = Gloeophyllum trabeum, read-out: MIC GTRA

O=C(CNC(=O)OCc1ccccc1)OCC#CI [Compound 31, N-benzyloxycarbonylglycine iodopropargyl ester]
1: ANIG growth (8 FUNGI; 2.5 PPM) | ANIG growth (8 FUNGI; 25 PPM) | APUL growth (8 FUNGI; 25 PPM) | CGLO growth (8 FUNGI; 2.5 PPM) | CGLO growth (8 FUNGI; 25 PPM) | CRES growth (8 FUNGI; 25 PPM) | GTRA growth (8 FUNGI; 2.5 PPM) | GTRA growth (8 FUNGI; 25 PPM) | PFUN growth (8 FUNGI; 2.5 PPM) | PFUN growth (8 FUNGI; 25 PPM) | RRUB growth (8 FUNGI; 25 PPM) | SSER growth (8 FUNGI; 25 PPM)
2 µg/mL: MIC (Aspergillus niger (ANIG))
63 µg/mL: MIC [4]
0: ANIG growth (8 FUNGI; 0.2 PPM) | ANIG growth (8 FUNGI; 1.0 PPM) | APUL growth (8 FUNGI; 0.2 PPM) | APUL growth (8 FUNGI; 1.0 PPM) | APUL growth (8 FUNGI; 2.5 PPM) | CGLO growth (8 FUNGI; 0.2 PPM) | CGLO growth (8 FUNGI; 1.0 PPM) | CRES growth (8 FUNGI; 0.2 PPM) | CRES growth (8 FUNGI; 1.0 PPM) | CRES growth (8 FUNGI; 2.5 PPM) | GTRA growth (8 FUNGI; 0.2 PPM) | GTRA growth (8 FUNGI; 1.0 PPM) | PFUN growth (8 FUNGI; 0.2 PPM) | PFUN growth (8 FUNGI; 1.0 PPM) | RRUB growth (8 FUNGI; 0.2 PPM) | RRUB growth (8 FUNGI; 1.0 PPM) | RRUB growth (8 FUNGI; 2.5 PPM) | SSER growth (8 FUNGI; 0.2 PPM) | SSER growth (8 FUNGI; 1.0 PPM) | SSER growth (8 FUNGI; 2.5 PPM)
0.8 µg/mL: MIC (THREE FUNGI; [8])
250 µg/mL: MIC (Escherichia coli (ECOL))
32 µg/mL: MIC [3] | MIC [5]
6.2 µg/mL: MIC [2] | MIC (THREE FUNGI; [7])
1.6 µg/mL: MIC (THREE FUNGI; [6])
4 µg/mL: MIC [1]

C/C=C/C=C/C(=O)NCC(=O)OCC#CI [Compound 35, N-sorbylglycine iodopropargyl ester]
0.4 µg/mL: MIC (THREE FUNGI; [8])
2 µg/mL: MIC (Aspergillus niger (ANIG))
1: ANIG growth (8 FUNGI; 1.0 PPM) | ANIG growth (8 FUNGI; 2.5 PPM) | ANIG growth (8 FUNGI; 25 PPM) | APUL growth (8 FUNGI; 25 PPM) | CGLO growth (8 FUNGI; 1.0 PPM) | CGLO growth (8 FUNGI; 2.5 PPM) | CGLO growth (8 FUNGI; 25 PPM) | CRES growth (8 FUNGI; 25 PPM) | GTRA growth (8 FUNGI; 1.0 PPM) | GTRA growth (8 FUNGI; 2.5 PPM) | GTRA growth (8 FUNGI; 25 PPM) | PFUN growth (8 FUNGI; 2.5 PPM) | PFUN growth (8 FUNGI; 25 PPM) | RRUB growth (8 FUNGI; 2.5 PPM) | RRUB growth (8 FUNGI; 25 PPM) | SSER growth (8 FUNGI; 25 PPM)
1.6 µg/mL: MIC (THREE FUNGI; [6])
63 µg/mL: MIC [3] | MIC [5]
6.2 µg/mL: MIC [2] | MIC (THREE FUNGI; [7])
125 µg/mL: MIC [4] | MIC (Escherichia coli (ECOL))
0: ANIG growth (8 FUNGI; 0.2 PPM) | APUL growth (8 FUNGI; 0.2 PPM) | APUL growth (8 FUNGI; 1.0 PPM) | APUL growth (8 FUNGI; 2.5 PPM) | CGLO growth (8 FUNGI; 0.2 PPM) | CRES growth (8 FUNGI; 0.2 PPM) | CRES growth (8 FUNGI; 1.0 PPM) | CRES growth (8 FUNGI; 2.5 PPM) | GTRA growth (8 FUNGI; 0.2 PPM) | PFUN growth (8 FUNGI; 0.2 PPM) | PFUN growth (8 FUNGI; 1.0 PPM) | RRUB growth (8 FUNGI; 0.2 PPM) | RRUB growth (8 FUNGI; 1.0 PPM) | SSER growth (8 FUNGI; 0.2 PPM) | SSER growth (8 FUNGI; 1.0 PPM) | SSER growth (8 FUNGI; 2.5 PPM)
4 µg/mL: MIC [1]

O=CNCC(=O)OCC#CI [Compound 32, N-formylglycine iodopropargyl ester]
32 µg/mL: MIC [3]
6.2 µg/mL: MIC [2]
2 µg/mL: MIC (Aspergillus niger (ANIG))
3.2 µg/mL: MIC (THREE FUNGI; [8])
1: ANIG growth (8 FUNGI; 25 PPM) | APUL growth (8 FUNGI; 25 PPM) | CGLO growth (8 FUNGI; 25 PPM) | CRES growth (8 FUNGI; 25 PPM) | GTRA growth (8 FUNGI; 25 PPM) | PFUN growth (8 FUNGI; 25 PPM) | RRUB growth (8 FUNGI; 25 PPM) | SSER growth (8 FUNGI; 25 PPM)
12.5 µg/mL: MIC (THREE FUNGI; [6])
8 µg/mL: MIC [1]
25 µg/mL: MIC (THREE FUNGI; [7])
63 µg/mL: MIC [4] | MIC (Escherichia coli (ECOL)) | MIC [5]
0: ANIG growth (8 FUNGI; 0.2 PPM) | ANIG growth (8 FUNGI; 1.0 PPM) | ANIG growth (8 FUNGI; 2.5 PPM) | APUL growth (8 FUNGI; 0.2 PPM) | APUL growth (8 FUNGI; 1.0 PPM) | APUL growth (8 FUNGI; 2.5 PPM) | CGLO growth (8 FUNGI; 0.2 PPM) | CGLO growth (8 FUNGI; 1.0 PPM) | CGLO growth (8 FUNGI; 2.5 PPM) | CRES growth (8 FUNGI; 0.2 PPM) | CRES growth (8 FUNGI; 1.0 PPM) | CRES growth (8 FUNGI; 2.5 PPM) | GTRA growth (8 FUNGI; 0.2 PPM) | GTRA growth (8 FUNGI; 1.0 PPM) | GTRA growth (8 FUNGI; 2.5 PPM) | PFUN growth (8 FUNGI; 0.2 PPM) | PFUN growth (8 FUNGI; 1.0 PPM) | PFUN growth (8 FUNGI; 2.5 PPM) | RRUB growth (8 FUNGI; 0.2 PPM) | RRUB growth (8 FUNGI; 1.0 PPM) | RRUB growth (8 FUNGI; 2.5 PPM) | SSER growth (8 FUNGI; 0.2 PPM) | SSER growth (8 FUNGI; 1.0 PPM) | SSER growth (8 FUNGI; 2.5 PPM)

Reference: EP0414533A1, “Use of iodopropargyl esters of alpha-amino acid derivatives as antimicrobial agents” (ROHM AND HAAS COMPANY, priority 1989, dated 1991)
